Data on three molecules can be found in patent US20080090873A1, “Sulfonamide derivatives” (priority 2006, published 2008).

In assay [1] the target is human muscarinic M3 receptor (Homo sapiens, UniProt P20309). Description: Whole cell β-lactamase reporter assay of antagonist activity in CHO cells expressing the hM3 receptor. As to conditions: NFAT β-lactamase reporter, inhibition of 80 nM carbamyl choline signal, 4 h. Type of assay: cell-based. Here is the method:
Functional Assessment of Antagonist Activity Using a Whole Cell β-Lactamase Reporter Assay in CHO Cells Expressing the hM3 Receptor.
CHO (Chinese Hamster Ovary) cells recombinantly expressing the human muscarinic M3 receptor were transfected with the NFAT_β-Lac_Zeo plasmid. Cells were grown in DMEM with Glutamax-1, supplemented with 25 mM HEPES (Life Technologies 32430-027), containing 10% FCS (Foetal Calf Serum; Sigma F-7524), […] Sodium pyruvate (Sigma S-8636), NEAA (non-Essential Amino Acids; Invitrogen 11140-035) and 200 μg/ml Zeocin (Invitrogen R250-01).
Cells were harvested for assay when they reached 80-90% confluency using enzyme free cell Dissociation Solution (Life technologies 13151-014) incubated with the cells for 5 min at 37° C. in an atmosphere containing 5% CO2. Detached cells were collected in warmed growth media and centrifuged at 2000 rpm for 10 min, washed in PBS (Phosphate Buffered Saline; Life Technologies 14190-094) and centrifuged again as just described. The cells were re-suspended at 2×10^5 cells/ml in growth medium (composition as described above). 20 μl of this cell suspension was added to each well of a 384 well black clear bottomed plate (Greiner Bio One 781091-PFI). The assay buffer used was PBS supplemented with 0.05% Pluronic F-127 (Sigma 9003-11-6) and 2.5% DMSO. Muscarinic M3 receptor signalling was stimulated using 80 nM carbamyl choline (Aldrich N240-9) incubated with the cells for 4 h at 37° C./5% CO2 and monitored at the end of the incubation period using a Tecan SpectraFluor+ plate reader (λ-excitation 405 nm, emission 450 nm and 503 nm). Compounds under test were added to the assay at the beginning of the 4 h incubation period and compound activity measured as the concentration dependent inhibition of the carbamyl choline induced signal. Inhibition curves were plotted and IC50 values generated using a 4-parameter sigmoid fit and converted to Ki values using the Cheng-Prusoff correction and the KD value for carbamyl choline in the assay.
(A reporter such as luciferase makes a cellular process visible.)

Assay [2] deals with human adrenergic B2 receptor (Homo sapiens, UniProt P07550). In words: Whole cell luciferase reporter assay of agonist potency in CHO cells expressing the hB2 receptor. Type of assay: cell-based. The conditions noted are these: 4 h incubation, read-out: EC50 - beta2. Here is the method:
Functional Assessment of Agonist Potency and Efficacy Using a Whole Cell Luciferase Reporter Assay in CHO Cells Expressing the hB2 Receptor.
CHO (Chinese Hamster Ovary) cells recombinantly expressing the human adrenergic B2 receptor and transfected with a luciferase enzyme reporter gene were maintained in growth media composed of F12:DMEM (Sigma D6421) containing 10% Foetal Bovine Serum (FBS: Sigma F03921) 10 μg/ml puromycin (Sigma N277698), 0.5 mg/ml Geneticin G418 (Sigma G7034) and 2 mM L-glutamine (Sigma G7513). The cells were kept in sterile conditions at 37° C., in an atmosphere containing 5% CO2.
hB2 Luciferase Assay Protocol
Cells were harvested for assay when they reached 80-90% confluency using enzyme free cell Dissociation Solution (Life technologies 13151-014) incubated with the cells for 5 min at 37° C. in an atmosphere containing 5% CO2. Detached cells were collected in warmed growth media (composition described above), and re-suspended in assay media (F12:DMEM (Sigma D6421) containing 1% Foetal Bovine Serum (FBS: Sigma F03921), 10 μg/ml puromycin (Sigma N277698), 0.5 mg/ml Geneticin G418 (Sigma G7034) and 2 mM L-glutamine (Sigma G7513)) to give a viable cell concentration of 1×10^6 cells/ml. 10 ul of this suspension was added to each well of a tissue culture treated low volume 384 well plate (Greiner788073) and the plate incubated in an atmosphere containing 5% CO2 at 37° C. for 2 h. Concentration ranges of test compounds were prepared in phosphate Buffered Saline containing 0.05% pluronic-F127 (Sigma P2443) and 2.5% DMSO. […] At the end of the incubation period 4 μl of Steady-Glo reagent (Steady-Glo Luciferase assay system (Promega E2520) was added to each well and the plate read immediately in a Leadseeker Plate reader (Amersham Bioscience) using a 660 nm filter. Concentration effect curves were plotted and EC50 values generated using a 4-parameter sigmoid fit using an in-house data analysis programme. Isoprenaline was run in every assay as a reference standard.

human muscarinic M3 receptor, sequence (P20309 whole entry): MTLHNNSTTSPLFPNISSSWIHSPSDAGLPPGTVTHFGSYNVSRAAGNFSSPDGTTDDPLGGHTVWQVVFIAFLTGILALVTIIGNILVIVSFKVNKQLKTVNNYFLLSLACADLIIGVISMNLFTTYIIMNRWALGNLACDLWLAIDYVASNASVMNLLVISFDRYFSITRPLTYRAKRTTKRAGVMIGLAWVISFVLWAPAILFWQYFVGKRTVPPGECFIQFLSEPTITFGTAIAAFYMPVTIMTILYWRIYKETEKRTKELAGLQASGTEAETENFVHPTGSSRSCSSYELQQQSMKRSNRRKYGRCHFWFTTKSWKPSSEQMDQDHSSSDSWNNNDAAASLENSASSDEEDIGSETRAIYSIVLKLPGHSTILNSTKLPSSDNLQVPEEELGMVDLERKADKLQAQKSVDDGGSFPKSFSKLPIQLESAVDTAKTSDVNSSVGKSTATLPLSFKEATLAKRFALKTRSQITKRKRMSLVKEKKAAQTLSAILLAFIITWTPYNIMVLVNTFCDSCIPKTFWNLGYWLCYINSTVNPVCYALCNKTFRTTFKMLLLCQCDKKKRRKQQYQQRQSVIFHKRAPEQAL
human adrenergic B2 receptor, sequence (P07550 whole entry): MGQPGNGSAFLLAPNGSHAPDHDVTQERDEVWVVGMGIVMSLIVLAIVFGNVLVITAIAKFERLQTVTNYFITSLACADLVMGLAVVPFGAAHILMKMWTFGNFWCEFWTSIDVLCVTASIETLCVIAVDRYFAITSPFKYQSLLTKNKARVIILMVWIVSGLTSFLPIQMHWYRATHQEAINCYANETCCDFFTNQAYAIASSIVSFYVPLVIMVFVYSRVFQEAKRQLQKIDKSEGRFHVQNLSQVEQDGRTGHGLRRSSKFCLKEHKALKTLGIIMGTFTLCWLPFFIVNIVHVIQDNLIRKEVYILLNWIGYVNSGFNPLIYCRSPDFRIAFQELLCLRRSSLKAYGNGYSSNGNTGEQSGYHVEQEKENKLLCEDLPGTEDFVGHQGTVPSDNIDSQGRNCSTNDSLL

What is called IC50 is the midpoint of a concentration-inhibition curve. The EC50 is the concentration needed to bring the measured effect to its halfway point. The molecule `CS(=O)(=O)Nc1cc([C@@H](O)CNCCCCCCCCCN2CCC(OC(=O)Nc3ccccc3-c3ccc(O)c(F)c3)CC2)ccc1O` [Example 1, 1-(9-{[(2R)-2-Hydroxy-2-{4-hydroxy-3-[(methylsulfonyl)amino]phenyl}ethyl]amino}nonyl)piperidin-4-yl(3′-fluoro-4′-hydroxybiphenyl-2-yl)carbamate] registered an IC50 in assay [1] of 2.93 nM. In addition, the EC50 in assay [2] turned out to be 1.01 nM.

On to `CS(=O)(=O)Nc1cc([C@@H](O)CNCCCCCCCCCN2CCC(OC(=O)Nc3ccccc3-c3ccc(O)c(Cl)c3)CC2)ccc1O` [Example 2, 1-(9-{[(2R)-2-Hydroxy-2-{4-hydroxy-3-[(methylsulfonyl)amino]phenyl}ethyl]amino}nonyl)piperidin-4-yl(3′-chloro-4′-hydroxybiphenyl-2-yl)carbamate], for which the IC50 in assay [1] was 0.725 nM. Further, the EC50 in assay [2] came out at 0.133 nM.

For the molecule `CS(=O)(=O)Nc1cc([C@@H](O)CNCCCCCCCCCN2CCC(OC(=O)Nc3ccc(F)cc3-c3ccc(O)c(Cl)c3)CC2)ccc1O` [Example 3, 1-(9-{[(2R)-2-hydroxy-2-{4-hydroxy-3-[(methylsulfonyl)amino]phenyl}ethyl]amino}nonyl)piperidin-4-yl(3′-chloro-5-fluoro-4′-hydroxybiphenyl-2-yl)carbamate], in assay [1], the concentration for half-maximal inhibition (IC50) is 1.07 nM. The EC50 in assay [2] came to 0.252 nM.
